Data from paper PMC6892925, “Development of Novel Silyl Cyanocinnamic Acid Derivatives as Metabolic Plasticity Inhibitors for Cancer Treatment” (Scientific Reports, 2019).
“Also recorded” adds a separate entry of the source.

Legend:
MCF7 cell line = assay: MTT cell proliferation inhibition assay; details: Homo sapiens, MCF7, read-out: MTT IC50
Description: (§5) Human triple-negative breast cancer MDA-MB-231 cells (ATCC) were grown in DMEM supplemented with 10% FBS (Atlanta Biologicals) and penicillin-streptomycin (50U/ml, 50 µg/ml, Invitrogen). Human colorectal adenocarcinoma WiDr cells (ATCC) were cultured in MEM medium supplemented with 10% FBS and penicillin-streptomycin. […] Murine metastatic breast cancer 4T1 cells were grown in RPMI-1640 supplemented with 10% FBS and penicillin-streptomycin. Human estrogen receptor positive breast cancer MCF7 cells (Masonic Cancer Center, University of Minnesota) were grown in MEM supplemented with 6% FBS, EGF (0.01 µg/ml), NEAA, HDC (1 µg/ml), insulin (10 µg/ml), HEPES (12 mM) and sodium pyruvate (1 mM).
(§6) Cell proliferation inhibition was evaluated using 3-(4,5-dimethylthiazol-2-yl)-2,5-diphenyl tetrazolium bromide (MTT) assay as reported previously[19].

MDA-MB-231 cells = assay: Mitotracker Red CMXROS fluorescent microscopy; format: cell-based, human; details: 30 μM, 24-hour exposure
Description: (§1) To evaluate the effects on mitochondrial morphology and vitality, Mitotracker Red CMXROS (MTR) fluorescence imaging experiments were employed. […] Furthermore, differential interference contrast (DIC) microscope images illustrate substantial membrane blebbing and vesiculation in compound treated cultures (Fig. 6).
(§2) MDA-MB-231 or WiDr cells (5 × 10^4 cells/mL) were seeded in glass-bottom dishes (MatTek Corp, part no. P35G010C) and incubated for 48 hours. Test compound (30 μM) was added and cells were again incubated for 24 hours prior to fluorescent microscopic imaging. In some cultures, MitoTracker Red CMXROS (Invitrogen, M7512, 100 nM) was added 15 min prior to imaging. The growth media was removed and replaced with 5% FBS in 1X PBS for imaging. Cells were then examined and photographed using a Nikon TE2000 epifluorescent microscope and camera. The images shown are representative of at least 3 fields of view of three separate experiments.

WiDr cells = assay: Mitotracker Red CMXROS fluorescent microscopy; format: cell-based, human; details: 30 μM, 24-hour exposure
Description: as §1, §2

MDA-MB-231 cell line = assay: MTT cell proliferation inhibition assay; details: Homo sapiens, MDA-MB-231, read-out: MTT IC50
Description: as §5, §6

WiDr cell line = assay: MTT cell proliferation inhibition assay; details: Homo sapiens, read-out: MTT IC50
Description: as §5, §6

healthy CD-1 mice = assay: In vivo systemic toxicity study; design: species or system mouse; details: once daily 25 mg/kg, 16-day treatment period
Description: Based on in vitro cell proliferation inhibition, MCT1 inhibition, and effects on glycolysis/mitochondrial function, we advanced candidate compounds 2a and 2b for translational in vivo safety and efficacy studies. […] Next, an MCT1 expressing WiDr tumor xenograft model was chosen to evaluate the efficacy of 2a and 2b. After tumors were inoculated, they were allowed to reach ~150 mm^3 volume, and mice were randomly divided into three groups. Group-1 was administered 25 mg/kg (i.p.) of compound 2a, group-2 was administered with 25 mg/kg (i.p.) of 2b, and group-3 was designated as control group and given an injection of vehicle. Treatment was continued for 16 days, and tumor volumes were recorded. […] During the two-week treatment period, there was no significant loss of body weights in mice between treated and control groups. […] At the end of the study, all the tumors were resected, and the tumor mass was weighed (Fig. 6D).
Five-week-old healthy CD-1 mice (Charles River) were obtained and acclimatized for one week prior to treatment. Mice (n = 6) were grouped randomly based on average body weight. […] Mice body weights were recorded daily as a proxy for animal health and were also examined for proper activity and grooming patterns. […]

[1] = tested on: MCT1 expressing WiDr cell line; assay: Seahorse XFe96 mitochondrial stress test (OCR); format: cell-based, human; details: 30 µM, vs DMSO control
Description: (§3) To assess mitochondrial stress, four parameters including maximal respiration, proton leak, ATP production, and spare respiratory capacity were measured. ATP production via OxPhos is dependent on mitochondrial integrity and can be measured directly via the oxygen consumption rate (OCR). Time-course OCR plots from WiDr and MDA-MB-231 cells were used to calculate 2a and 2b treatment-induced changes in specified parameters following the addition of various mitochondrial targeting agents (Fig. 5A,B). […] Spare respiratory capacity is a value that is not directly linked to mitochondrial damage but represents the cells ability to respond to rapid ATP demands.
(§4) 20,000 cells/well were plated in 96-well Seahorse plates (Agilent, part no. 101085-004) and incubated 16–24 hours at 37 °C at 5% CO2. Flux pack sensors (Agilent, part no. 102416-100) were hydrated with XF calibrant solution (Agilent, part no. 100840-000) overnight at 37 °C in a non-CO2 incubator. The serum free assay media was prepared from Seahorse base medium (Agilent, part no. 102353-100) enriched with glutamine (1 mM) and sodium pyruvate (1 mM). The pH of the media was adjusted to 7.4. For glycolysis stress test the serum free assay media was used. For the mitochondrial stress test glucose (10 mM) was added to make an enriched serum free assay media. For both stress tests an 8X stock concentration of test compounds in their respective media was prepared for microplate injections in port A. Stock solutions of glucose (90 mM), oligomycin (10 μM), and 2-deoxyglucose (Chem Impex, 550 mM) were prepared such that their final working concentrations are 10 mM, 1 μM and 50 mM, respectively, for glycolysis stress test. For mitochondrial stress test, stock solutions of oligomycin (9 µM), FCCP (2.5–10 µM, cell line dependent), rotenone + antimycin A (5.5 µM) were prepared such that their final concentrations were 1 µM, 0.25–1 µM, and 0.5 µM, respectively in the enriched test media. Under glycolytic stress test, the cells were treated with test compounds, followed by the addition of glucose, oligomycin and 2-deoxyglucose at 14.29, 33.8, 53.35, 72.87 minutes, respectively. Under mitochondrial stress test, cells were treated with test compounds, followed by the addition of oligomycin, FCCP, and rotenone + antimycin A, at 14.29, 33.8, 53.35, 72.87 minutes, respectively. Extracellular acidification rates (ECAR) and oxygen consumption rates (OCR) were recorded in real-time for glycolysis and mitochondrial stress tests, respectively, using a Seahorse XFe96® analyzer (Agilent). The parameters related to glycolytic and mitochondrial functions were calculated utilizing the Wave 2.4.0 software (Agilent). ATP rate assay experiment was performed using manufactures (Agilent) protocol, and respective mitochondrial and glycolytic ATP rates were normalized to protein (BCA assay) and calculated using Wave 2.4.0 software.

[2] = tested on: MCT4 expressing MDA-MB-231 cell line; assay: Seahorse XFe96 mitochondrial stress test (OCR); format: cell-based, human; details: 30 µM, MDA-MB-231, vs DMSO control
Description: as §3, §4

4T1 cell line = assay: MTT cell proliferation inhibition assay; details: Mus musculus, 4T1, read-out: MTT IC50
Description: as §5, §6

Row | Structure (SMILES) | IC50 (MCF7 cell line) | MTR fluorescence / mitochondrial morphology (MDA-MB-231 cells) | MTR fluorescence / mitochondrial morphology (WiDr cells) | IC50 (MDA-MB-231 cell line) | IC50 (WiDr cell line) | systemic toxicity / tolerability (body weight gains, behavior, grooming) (healthy CD-1 mice) | FCCP induced maximal respiration (OCR) [1] | oxygen consumption for mitochondrial ATP production (OCR) [1] | proton leak (OCR) [1] | spare respiratory capacity (OCR) [1] | FCCP induced maximal respiration (OCR) [2] | oxygen consumption for mitochondrial ATP production (OCR) [2] | proton leak (OCR) [2] | spare respiratory capacity (OCR) [2] | IC50 (4T1 cell line)
1 | CC(C)(C)[Si](Oc1ccc(/C=C(\C#N)C(=O)O)cc1)(c1ccccc1)c1ccccc1 [2a] | 39 ± 3 µM | more diffuse and dim general cytoplasmic fluorescence; also recorded: substantial redistribution of MTR | more diffuse and dim general cytoplasmic fluorescence; also recorded: substantial redistribution of MTR | 93 µM | 41 ± 2 µM | well tolerated | significantly decreased | significantly decreased | significant increase | significant decrease | significantly decreased | significantly decreased | significant increase | significant decrease | 56 ± 1 µM
2 | CC(C)(C)[Si](OCCOc1ccc(/C=C(\C#N)C(=O)O)cc1)(c1ccccc1)c1ccccc1 [2b] | 35 ± 3 µM |  |  | 71 ± 1 µM | 6 ± 1 µM | well tolerated | significantly decreased | significantly decreased | significant increase | significant decrease | significantly decreased | significantly decreased | significant increase | significant decrease | 22 ± 1 µM
